Data: patent US20260256792A1, “TREATMENT OF CHRONIC SPONTANEOUS URTICARIA BY ADMINISTERING (R)-2-[3-[4-AMINO-3-(2-FLUORO-4-PHENOXY-PHENYL)PYRAZOLO[3,4-D]PYRIMIDIN-1-YL]PIPERIDINE-1-CARBONYL]-4-METHYL-4-[4-(OXETAN-3-YL)PIPERAZIN-1-YL]PENT-2-ENENITRILE” (priority 2023, published 2026)

Tested on: moderate-to-severe chronic spontaneous urticaria (CSU)
Test: Phase 2 CSU study: urticaria activity score over 7 days (UAS7)
Assay type: in vivo, human
Design: key to UAS7 Median / UAS7 Change from baseline Median / UAS7 change from baseline, Q1 / UAS7 change from baseline, Q3 / UAS7 change from baseline, Max / UAS7 Change from baseline LS Mean (SE): UAS7 points; daily UAS score ranges 0–6 points/day, over 7 days
From the text: The study comprises a 12 week, randomized, double-blind, placebo-controlled, multi-center, dose-ranging efficacy and safety phase, followed by a 40 week open label extension (OLE) phase (see FIG. 1). The study consists of three phases and an optional OLE phase. […] Clinically, CSU is characterized by the spontaneous and recurrent appearance of pruritic hives. The proposed primary endpoints were the UAS7 at Week 12 in EU and EU reference countries and the ISS7 in the US. Regardless of where a participant was from, all assessments were the same. The UAS7 score is a composite score containing both the HSS7 and the ISS7. This allowed a global assessment of the two key components of urticaria: hives and itch. […] The UAS is a validated PRO measure. […] The daily UAS scores range from 0 to 6 point/day. […] Patients were to complete the UAS using the e-diary. […] The following secondary endpoints were to be analyzed using the same approach as for the primary endpoint: • Change from baseline in UAS7 at Week 4 • Change from baseline in UAS7 at Week 12 (for US and US reference countries) • Change from baseline in ISS7 at Week 12 (except US and US reference countries) • Change from baseline in HSS7 at Week 12 The following responder secondary endpoints were to be analyzed using the Cochran-Mantel-Haenszel test adjusted by region: • Proportion of participants with UAS7<6 at Week 12 • Proportion of participants with UAS7=0 at Week 12 Participants who received selected prohibited medications and/or rescue medications were to be considered as non-responders for time points after the medication usage. For other participants, all available data including those collected during the off-treatment period were to be used to determine the responder/non-responder status. Missing data were to be considered as non-responders.

[1] = Week 6, 400 mg BID, ITT population
[2] = Week 6, 400 mg BID, Omalizumab-Naïve
[3] = Week 6, 400 mg BID, Prior Omalizumab Use
[4] = Week 6, 400 mg BID, omalizumab-naive participants
[5] = Week 6, 400 mg QPM, ITT population
[6] = Week 6, 400 mg QPM, Omalizumab-Naïve
[7] = Week 6, 400 mg QPM, Prior Omalizumab Use
[8] = Week 6, 400 mg QPM, omalizumab-naive participants
[9] = Week 6, 400 mg TID, ITT population
[10] = Week 6, 400 mg TID, Omalizumab-Naïve
[11] = Week 6, 400 mg TID, Prior Omalizumab Use
[12] = Week 6, 400 mg TID, omalizumab-naive participants
[13] = Week 7, 400 mg BID, ITT population
[14] = Week 7, 400 mg BID, Omalizumab-Naïve

Structure (SMILES): CC(C)(C=C(C#N)C(=O)N1CCC[C@@H](n2nc(-c3ccc(Oc4ccccc4)cc3F)c3c(N)ncnc32)C1)N1CCN(C2COC2)CC1 [rilzabrutinib, (R)-2-[3-[4-amino-3-(2-fluoro-4-phenoxy-phenyl)pyrazolo[3,4-d]pyrimidin-1-yl]piperidine-1-carbonyl]-4-methyl-4-[4-(oxetan-3-yl)piperazin-1-yl]pent-2-enenitrile]
- OR for rilzabrutinib vs. placebo, UAS7 reduction of 10 points or more [1]: 1.222
- RRD (%) for rilzabrutinib vs. placebo, UAS7 reduction of 10 points or more [1]: 4.9 %
- Responder, UAS7 reduction from baseline of 10 points or more [1]: 21 (51.2) n (%)
- UAS7 Change from baseline Mean (SD) [2]: −12.76 (11.42)
- UAS7 Mean (SD) [2]: 17.02 (12.76)
- UAS7 Median [2]: 16.50
- UAS7 Percent change from baseline Mean (SD) [2]: −43.89 (39.18) %
- UAS7 Percent change from baseline Median [2]: −38.06%
- UAS7 Change from baseline Mean (SD) [3]: −18.97 (18.81)
- UAS7 Change from baseline Median [3]: −26.00
- UAS7 Mean (SD) [3]: 13.03 (15.45)
- UAS7 Median [3]: 5.83
- UAS7 Percent change from baseline Mean (SD) [3]: −54.26 (54.98) %
- UAS7 Percent change from baseline Median [3]: −86.11%
- Non-responder, UAS7 reduction from baseline of 10 points or more [4]: 17 (48.6) n (%)
- OR for rilzabrutinib vs. placebo, UAS7 reduction of 10 points or more [4]: 1.486
- RRD (%) for rilzabrutinib vs. placebo, UAS7 reduction of 10 points or more [4]: 9.8 %
- Responder, UAS7 reduction from baseline of 10 points or more [4]: 18 (51.4) n (%)
- Non-responder, UAS7 reduction from baseline of 10 points or more [5]: 22 (57.9) n (%)
- OR for rilzabrutinib vs. placebo, UAS7 reduction of 10 points or more [5]: 0.959
- RRD (%) for rilzabrutinib vs. placebo, UAS7 reduction of 10 points or more [5]: −1.0 %
- Responder, UAS7 reduction from baseline of 10 points or more [5]: 16 (42.1) n (%)
- UAS7 Change from baseline Mean (SD) [6]: −11.79 (10.56)
- UAS7 Change from baseline Median [6]: −9.00
- UAS7 Mean (SD) [6]: 20.21 (10.42)
- UAS7 Median [6]: 18.25
- UAS7 Percent change from baseline Mean (SD) [6]: −35.97 (30.17) %
- UAS7 Percent change from baseline Median [6]: −37.30%
- UAS7 Change from baseline Mean (SD) [7]: −24.00 (NC)
- UAS7 Change from baseline Median [7]: −24.00
- UAS7 Mean (SD) [7]: 17.00 (NC)
- UAS7 Median [7]: 17.00
- UAS7 Percent change from baseline Mean (SD) [7]: −58.54 (NC) %
- UAS7 Percent change from baseline Median [7]: −58.54%
- Non-responder, UAS7 reduction from baseline of 10 points or more [8]: 22 (59.5) n (%)
- OR for rilzabrutinib vs. placebo, UAS7 reduction of 10 points or more [8]: 0.981
- RRD (%) for rilzabrutinib vs. placebo, UAS7 reduction of 10 points or more [8]: −0.5 %
- Responder, UAS7 reduction from baseline of 10 points or more [8]: 15 (40.5) n (%)
- Non-responder, UAS7 reduction from baseline of 10 points or more [9]: 16 (39.0) n (%)
- OR for rilzabrutinib vs. placebo, UAS7 reduction of 10 points or more [9]: 1.787
- RRD (%) for rilzabrutinib vs. placebo, UAS7 reduction of 10 points or more [9]: 14.2 %
- Responder, UAS7 reduction from baseline of 10 points or more [9]: 25 (61.0) n (%)
- UAS7 Change from baseline Mean (SD) [10]: −15.94 (12.03)
- UAS7 Change from baseline Median [10]: −15.00
- UAS7 Mean (SD) [10]: 14.10 (11.23)
- UAS7 Median [10]: 14.00
- UAS7 Percent change from baseline Mean (SD) [10]: −52.07 (35.76) %
- UAS7 Percent change from baseline Median [10]: −47.83%
- UAS7 Change from baseline Mean (SD) [11]: −26.03 (14.05)
- UAS7 Change from baseline Median [11]: −26.58
- UAS7 Median [11]: 3.00
- UAS7 Percent change from baseline Mean (SD) [11]: −78.40 (28.08) %
- UAS7 Percent change from baseline Median [11]: −89.66%
- Non-responder, UAS7 reduction from baseline of 10 points or more [12]: 15 (42.9) n (%)
- OR for rilzabrutinib vs. placebo, UAS7 reduction of 10 points or more [12]: 1.770
- RRD (%) for rilzabrutinib vs. placebo, UAS7 reduction of 10 points or more [12]: 14.6 %
- Responder, UAS7 reduction from baseline of 10 points or more [12]: 20 (57.1) n (%)
- Non-responder, UAS7 reduction from baseline of 10 points or more [13]: 18 (43.9) n (%)
- OR for rilzabrutinib vs. placebo, UAS7 reduction of 10 points or more [13]: 1.899
- RRD (%) for rilzabrutinib vs. placebo, UAS7 reduction of 10 points or more [13]: 15.6 %
- Responder, UAS7 reduction from baseline of 10 points or more [13]: 23 (56.1) n (%)
- UAS7 Change from baseline Mean (SD) [14]: −14.03 (11.20)
- UAS7 Change from baseline Median [14]: −12.75
- UAS7 Mean (SD) [14]: 15.55 (11.97)
- UAS7 Median [14]: 14.88
- UAS7 Percent change from baseline Mean (SD) [14]: −48.14 (36.14) %
